According to patent US5190923A, “Peptide compounds containing a cyclic amide structure” (Adir Et Compagnie, priority 1990, dated 1993):

Key:
Assay type in all cases: in vivo
[1] = tested on: sodium-dependent choline uptake (HACU); assay: Cholinergic deficit induced by barbiturate narcosis in mice (hippocampal HACU); conditions: mouse hippocampus
[2] = tested on: oxotremorine-induced tremor; assay: Oxotremorine-induced tremor in mice; conditions: for minimal active dose (potentiation of tremor): IP
Protocol: Administered at a dose of 0.5 mg/kg IP, oxotremorine, a non-selective M1 -M2 muscarinic agonist leads to cholinergic symptoms of central origin, such as tremor. In control animals, the maximum tremor-inducing effect is observed after 15 minutes, and this effect disappears completely in the course of 45 to 60 minutes.
The administration of TRH (10 mg/kg IP) 30 minutes before that of oxotremorine potentiates the tremor (+50%) at its peak of intensity (15 minutes), but prolongs it to only a very small extent (15 minutes:+20%). The minimal active dose is 5 mg/kg.
Under the same conditions, the compounds of the invention also exert the same potentiating effect, but at much lower minimal active doses, and this effect persists for a further 60 minutes after the injection of oxotremorine. Thus, the minimal active doses are, for example, as follows: […]

[3] = tested on: xylazine-induced loss of righting reflex; assay: Xylazine induced inhibition of the righting reflex in rats; conditions: IP
Protocol: The administration of a central α2 agonist, xylazine, to rats leads to loss of the animal's righting reflex. This effect is antagonized by yohimbine (α2 antagonist) and by agents facilitating noradrenaline release.
TRH antagonizes the effect of xylazine, and the median effective dose is close to 10 mg/kg IP. Under the same conditions, the ED50 of the compounds of Examples 1 and 5 are 0.1 and 0.3 mg/kg, respectively.

[4] = 30 minutes before oxotremorine 0.5 mg/kg IP

Compound	counteraction of the fall in HACU ([1]; 10 mg/kg IP, administered 30 minutes before pentobarbital)	counteraction of the fall in HACU ([1]; 10 mg/kg IP, administered simultaneously with pentobarbital (60 mg/kg IP))	counteraction of the fall in HACU ([1]; 30 mg/kg IP, administered 30 minutes before pentobarbital)	potentiation of the tremor at its peak of intensity (15 minutes) ([2]; 10 mg/kg IP, 30 minutes before oxotremorine 0.5 mg/kg IP)	prolongation of the tremor ([2]; 10 mg/kg IP, 30 minutes before oxotremorine, printed time 15 minutes)	minimal active dose (potentiation of tremor) [2, 4]	potentiation of the tremor measured at the peak ([2]; administered 60 minutes before the muscarinic agonist)	median effective dose (ED50), antagonism of the effect of xylazine [3]	counteraction of the fall in HACU ([1]; 1 mg/kg IP, administered 30 minutes before induction of narcosis)	counteraction of the fall in HACU ([1]; 3 mg/kg IP, administered 30 minutes before induction of narcosis)
NC(=O)[C@@H]1CCCN1C(=O)[C@H](Cc1cnc[nH]1)NC(=O)[C@@H]1CCC(=O)N1 [TRH]	-1.9%	-35%	+4.8%	+50%	+20%	5 mg/kg	no longer potentiates the tremor	~10 mg/kg	–	–
AZEP-(S)(N.tau.-Me)His-(1S,3S,4R)ABH-NH2 [Example 1]	–	–	–	–	–	0.3 mg/kg	–	0.1 mg/kg	-25.5%	-61.1%
